pIC50: −log10 of the molar value.
What follows are molecules tested against EGFR (human) (UniProt P00533).
EGFR (human), sequence (P00533 whole entry, looked up): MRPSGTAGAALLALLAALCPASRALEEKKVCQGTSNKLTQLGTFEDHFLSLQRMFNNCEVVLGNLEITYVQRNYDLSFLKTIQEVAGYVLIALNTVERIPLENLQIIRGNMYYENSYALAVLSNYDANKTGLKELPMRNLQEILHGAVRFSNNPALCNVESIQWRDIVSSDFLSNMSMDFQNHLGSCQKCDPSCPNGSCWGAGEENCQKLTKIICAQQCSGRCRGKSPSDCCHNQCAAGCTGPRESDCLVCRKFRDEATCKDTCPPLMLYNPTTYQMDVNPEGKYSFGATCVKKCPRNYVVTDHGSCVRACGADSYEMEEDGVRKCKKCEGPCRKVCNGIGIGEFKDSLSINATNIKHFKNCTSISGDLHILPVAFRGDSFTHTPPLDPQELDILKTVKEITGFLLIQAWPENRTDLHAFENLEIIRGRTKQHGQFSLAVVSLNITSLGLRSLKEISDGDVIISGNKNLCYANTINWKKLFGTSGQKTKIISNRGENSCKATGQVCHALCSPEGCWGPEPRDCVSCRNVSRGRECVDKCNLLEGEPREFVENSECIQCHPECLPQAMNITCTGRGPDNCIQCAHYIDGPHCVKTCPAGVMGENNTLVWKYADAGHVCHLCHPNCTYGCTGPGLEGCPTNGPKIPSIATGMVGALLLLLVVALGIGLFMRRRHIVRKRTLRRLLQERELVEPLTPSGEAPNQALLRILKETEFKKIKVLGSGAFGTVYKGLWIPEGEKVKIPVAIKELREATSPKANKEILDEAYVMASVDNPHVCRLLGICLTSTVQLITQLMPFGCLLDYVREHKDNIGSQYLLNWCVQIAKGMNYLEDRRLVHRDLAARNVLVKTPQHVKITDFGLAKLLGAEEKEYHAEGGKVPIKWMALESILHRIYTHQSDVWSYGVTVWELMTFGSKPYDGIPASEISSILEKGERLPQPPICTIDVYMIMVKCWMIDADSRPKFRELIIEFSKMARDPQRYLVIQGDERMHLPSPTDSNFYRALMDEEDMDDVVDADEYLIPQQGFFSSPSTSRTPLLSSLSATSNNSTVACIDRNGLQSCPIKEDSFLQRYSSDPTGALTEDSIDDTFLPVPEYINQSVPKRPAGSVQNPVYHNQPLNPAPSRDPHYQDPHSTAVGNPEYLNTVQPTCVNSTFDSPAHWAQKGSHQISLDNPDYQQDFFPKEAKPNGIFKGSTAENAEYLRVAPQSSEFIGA

Row | Structure (SMILES) | pIC50
1 | C=CC(=O)Nc1cc2c(Nc3ccc(F)c(Cl)c3)ncnc2cc1C#CC(COCC)(COCC)N1CCN(C)CC1 | 8.36
2 | C#Cc1cccc(Nc2ncnc3cc(OCC)c(C#CC(C)(C)N4CCN(C(C)=O)CC4)cc23)c1 | < 8.00
3 | CC(C)(C#Cc1cc2ncnc(Nc3ccc(F)c(Cl)c3)c2cc1NS(C)(=O)=O)N1CCN(S(C)(=O)=O)CC1 | 8.68
4 | C=CC(=O)Nc1cc2c(Nc3ccc(F)c(Cl)c3)ncnc2cc1C#CC(C)(C)N1CCN(C)CC1 | 8.74
5 | CC(=O)N1CCN(C(C)(C)C#Cc2cc3ncnc(Nc4ccc(F)c(Cl)c4)c3cc2NS(C)(=O)=O)CC1 | 8.68
6 | C=CC(=O)Nc1cc2c(Nc3ccc(F)c(Cl)c3)ncnc2cc1C#CC1(N2CCN(C)CC2)CCCCC1 | 8.62
7 | C=CC(=O)Nc1cc2c(Nc3ccc(F)c(Cl)c3)ncnc2cc1C#CC(C)(C)N(CCOC)CCOC | 8.46
8 | COCCN(C)C(C)(C)C#Cc1cc2ncnc(Nc3ccc(F)c(Cl)c3)c2cc1NS(C)(=O)=O | 8.51
9 | CCOCC(C#Cc1cc2ncnc(Nc3ccc(F)c(Cl)c3)c2cc1NS(C)(=O)=O)(COCC)N1CCN(C)CC1 | 7.99
10 | C=CC(=O)Nc1cc2c(Nc3ccc(F)c(Cl)c3)ncnc2cc1C#CC(C)(C)N1CCC(O)CC1 | 8.72
11 | C=CC(=O)Nc1cc2c(Nc3ccc(F)c(Cl)c3)ncnc2cc1C#CCN1CCOCC1 | > 9.00
12 | C=CC(=O)Nc1cc2c(Nc3ccc(F)c(Cl)c3)ncnc2cc1C#CC(C)(C)N1CCCC1 | 8.59
13 | CCOc1cc2ncnc(Nc3ccc(F)c(Cl)c3)c2cc1C#CCCN1CCN(C)CC1 | 8.92
14 | CC(C)(C#Cc1cc2ncnc(Nc3ccc(F)c(Cl)c3)c2cc1NS(C)(=O)=O)N1CCC(=O)CC1 | 8.68
15 | C=CC(=O)Nc1cc2c(Nc3ccc(F)c(Cl)c3)ncnc2cc1C#CC(C)(C)N1CCN(CCC#N)CC1 | 8.54
16 | CS(=O)(=O)Nc1cc2c(Nc3ccc(F)c(Cl)c3)ncnc2cc1C#CCCN1CCOCC1 | > 9.00
17 | C=CC(=O)Nc1cc2c(Nc3ccc(F)c(Cl)c3)ncnc2cc1C#CC(C)(C)N1CCN(C(C)=O)CC1 | > 9.00
18 | COC1CCN(C(C)(C)C#Cc2cc3ncnc(Nc4ccc(F)c(Cl)c4)c3cc2NS(C)(=O)=O)CC1 | 8.28
19 | C=CC(=O)Nc1cc2c(Nc3ccc(F)c(Cl)c3)ncnc2cc1C#CC(C)(C)N(C)CCN(C)C | 8.62
20 | C=CC(=O)Nc1cc2c(Nc3ccc(F)c(Cl)c3)ncnc2cc1C#CC(C)(C)N(CC)CCC(=O)OC | 8.59

Further lines, results first:

Row | pIC50 | Structure (SMILES)
21 | 8.82 | C=CC(=O)Nc1cc2c(Nc3ccc(F)c(Cl)c3)ncnc2cc1C#CC(C)(C)N1CCN(CCOC)CC1
22 | 8.17 | COCCN(CCOC)C(C)(C)C#Cc1cc2ncnc(Nc3ccc(F)c(Cl)c3)c2cc1NS(C)(=O)=O
23 | < 8.00 | CCOCC(C#Cc1cc2c(Nc3ccc(F)c(Cl)c3)ncnc2cc1OCC)(COCC)N1CCN(C)CC1
24 | < 8.00 | COc1cc2ncnc(Nc3cccc(C(C)=O)c3)c2cc1C#CC(C)(C)N1CCN(C)CC1
25 | > 9.00 | C=CC(=O)Nc1cc2c(Nc3ccc(F)c(Cl)c3)ncnc2cc1C#CCCN1CCOCC1
26 | 8.43 | C=CC(=O)Nc1cc2c(Nc3ccc(F)c(Cl)c3)ncnc2cc1C#CC(C)(C)N(C)CCOC
27 | 8.42 | CCOc1cc2ncnc(Nc3ccc(F)c(Cl)c3)c2cc1C#CC(C)(C)N(C)C1CCN(C)CC1
28 | 8.68 | C=CC(=O)Nc1cc2c(Nc3ccc(F)c(Cl)c3)ncnc2cc1C#CC(CC)(CC)N1CCN(C)CC1
29 | 8.48 | C=CC(=O)Nc1cc2c(Nc3ccc(F)c(Cl)c3)ncnc2cc1C#CC(C)(C)N1CCN(CC)CC1
30 | 8.72 | CN1CCCN(C(C)(C)C#Cc2cc3ncnc(Nc4ccc(F)c(Cl)c4)c3cc2NS(C)(=O)=O)CC1
31 | 8.74 | C=CC(=O)Nc1cc2c(Nc3ccc(F)c(Cl)c3)ncnc2cc1C#CC(C)(C)N1CCC(=O)CC1
32 | > 9.00 | CN1CCN(CCC#Cc2cc3ncnc(Nc4ccc(F)c(Cl)c4)c3cc2NS(C)(=O)=O)CC1
33 | > 9.00 | C=CC(=O)Nc1cc2c(Nc3ccc(F)c(Cl)c3)ncnc2cc1C#CCN1CCN(C)CC1
34 | > 9.00 | CN1CCN(CC#Cc2cc3ncnc(Nc4ccc(F)c(Cl)c4)c3cc2NS(C)(=O)=O)CC1
35 | 8.34 | C=CC(=O)Nc1cc2c(Nc3ccc(F)c(Cl)c3)ncnc2cc1C#CC(C)(C)N1CCC(OC)CC1
36 | 8.49 | C=CC(=O)Nc1cc2c(Nc3ccc(F)c(Cl)c3)ncnc2cc1C#CC(C)(C)N1CCCN(C)CC1
37 | 8.49 | C#Cc1cccc(Nc2ncnc3cc(OCC)c(C#CC(C)(C)N(C)C4CCN(C)CC4)cc23)c1
38 | > 9.00 | C=CC(=O)Nc1cc2c(Nc3ccc(F)c(Cl)c3)ncnc2cc1/C=C/CCN1CCN(C)CC1
39 | 8.54 | CN(C)CCN(C)C(C)(C)C#Cc1cc2ncnc(Nc3ccc(F)c(Cl)c3)c2cc1NS(C)(=O)=O
40 | 8.72 | C=CC(=O)Nc1cc2c(Nc3ccc(F)c(Cl)c3)ncnc2cc1C#CC(C)(C)N1CCN(S(C)(=O)=O)CC1
